Tested on: TRE DNA
Assay: EMSA, binding of cJun bZIP to TRE DNA
Conditions: cJun bZIP 20 μM, TRE DNA 2 μM, relative to DNA alone
Procedure: To provide further evidence of functional antagonism, an electrophoretic mobility shift assay (EMSA) was employed. […] No bound cJun/TRE DNA band was observed as the overall charge of this complex prohibited entry into the gel. Antagonism was therefore best observed by monitoring the intensity of the free DNA band.
Isothermal Titration Calorimetry (ITC): Peptides were studied in an ITC buffer consisting of 10 mM potassium phosphate, 150 mM potassium fluoride and 5 mM TCEP at pH 7.4. Using a MicroCal VP-ITC instrument (Malvern), 10 µL injections of antagonist peptide (HingeW or A-FosW) at 10 µM were injected into the cell containing cJun at 1 µM.
MicroCal Origin software was used to record and analyse the heat change upon addition.
Control experiments involved the injection of the antagonist peptide sample into the cell containing ITC buffer alone to determine the heat of dilution which was subtracted. The resulting binding data were fit to a one site binding model to extract the enthalpy change of binding (ΔH) and the equilibrium binding constant (K D), from which the free energy change of binding (ΔG) and the entropy change of binding (ΔS) was calculated (41).
Thermodynamic parameters are presented as an average of two independent experiments with errors given as one standard deviation. […]

In the case of “cJun bZIP: human cJun bZIP domain, Arg252 to Leu308 (target protein)”, the “free DNA band intensity on adding cJun bZIP” value is reported as “significant reduction in the free DNA band intensity”.

Source: PMC9088798, “An Approach to Derive Functional Peptide Inhibitors of Transcription Factor Activity” (JACS Au, 2022)
